{"source": "patent US20070264702A1", "about": "(priority 2003, published 2007)", "key": {"[1]": {"system": "nahR/Psal::xylS2 cascade circuit with Pm::trp′::′lacZ in SL7207 4S2", "assay_type": "cell-based, Salmonella typhimurium"}, "[2]": {"system": "SL7207 4S2 pWSK-/pCAS-trp′::′lacZ infecting HeLa cells", "assay_type": "cell-based"}, "[3]": {"system": "XylS2", "details": "XylS2 mutant regulator; cited from earlier work"}, "[4]": {"system": "nahR/Psal with xylS2/Pm downstream", "details": "cited from earlier work"}, "[5]": {"system": "SL7207 4S2", "assay": "growth inhibition of the bacterial cultures at high inducer concentration", "details": "high concentrations (5 mM)"}, "[6]": {"target": "MarR (Escherichia coli, UniProt P27245)", "sequence (P27245 whole entry)": "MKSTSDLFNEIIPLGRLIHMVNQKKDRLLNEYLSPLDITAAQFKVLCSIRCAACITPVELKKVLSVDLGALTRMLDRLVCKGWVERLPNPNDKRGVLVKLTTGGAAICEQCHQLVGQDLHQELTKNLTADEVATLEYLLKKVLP", "details": "cited from earlier work"}, "[7]": {"details": "in vivo; cited from earlier work"}}, "note": "pKd: −log10 of the molar value. “Also recorded” adds a separate entry of the source."}
{"smiles": "CC(=O)Oc1ccccc1C(=O)O", "note": "[acetylsalicylic acid]", "values": [{"measurement": "induction of the system, salicylate compared with acetylsalicylic acid", "setting": "[1]", "value": "induced the system similarly"}, {"measurement": "β-galactosidase expression in bacteria infecting HeLa cells", "setting": "[2]", "value": "induce similar levels of β-galactosidase; also recorded: activate the signal cascade to similar levels"}, {"measurement": "induction of expression", "setting": "[3]", "value": 10, "unit": "fold"}, {"measurement": "induction reached with regulation cascade system", "setting": "[4]", "value": "1,000 fold"}, {"measurement": "growth inhibition", "setting": "[5]", "value": "growth inhibition was evident"}]}
{"smiles": "O=C(O)c1ccccc1O", "note": "[salicylate]", "values": [{"measurement": "pKd", "setting": "[6]", "value": 3.30}, {"measurement": "half-life", "setting": "[7]", "value": "2 to 4", "unit": "h"}]}
